One test concerns the target T1, SHP-2 enzyme (Homo sapiens, UniProt Q06124).
T1 construct: Homogeneous Full Length SHP-2 Assay Kit (BPS Bioscience #79330); purchased BPS Bioscience 79330
T1 sequence (Q06124 1-593): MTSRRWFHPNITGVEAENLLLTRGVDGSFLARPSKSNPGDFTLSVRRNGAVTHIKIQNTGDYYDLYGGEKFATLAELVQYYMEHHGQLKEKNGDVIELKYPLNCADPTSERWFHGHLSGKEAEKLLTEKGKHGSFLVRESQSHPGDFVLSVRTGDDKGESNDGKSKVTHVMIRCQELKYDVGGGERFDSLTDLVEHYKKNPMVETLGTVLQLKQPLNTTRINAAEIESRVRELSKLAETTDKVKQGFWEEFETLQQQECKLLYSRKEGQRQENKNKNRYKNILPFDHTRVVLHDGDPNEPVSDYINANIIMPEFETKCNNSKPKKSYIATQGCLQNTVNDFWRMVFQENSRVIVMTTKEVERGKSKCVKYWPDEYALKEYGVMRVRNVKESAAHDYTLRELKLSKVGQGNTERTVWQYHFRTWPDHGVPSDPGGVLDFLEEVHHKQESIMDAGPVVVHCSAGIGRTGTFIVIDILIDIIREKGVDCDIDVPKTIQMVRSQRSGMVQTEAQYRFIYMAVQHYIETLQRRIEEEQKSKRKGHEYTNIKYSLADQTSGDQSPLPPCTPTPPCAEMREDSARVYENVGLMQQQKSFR
Briefly: Phosphatase activity assay (Homogeneous Full Length SHP-2 Assay Kit, DiFMUP substrate). It is filed as biochemical. The following applies: full length SHP-2 activated with 0.5 μM SHP-2 activating Peptide; 1 hour co-incubation; DiFMUP 50 μM, 30 min. Put shortly: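 Full-length SHP-2 (0.04 ng/μL) was activated with 0.5 μM activating peptide in buffer with 2.5 mM DTT, co-incubated 1 h with compound (0.5 nM to 1 μM) or 0.1% DMSO. Reaction was started with 50 μM DiFMUP, and fluorescence (ex 350/em 460 nm) was read after 30 min to give IC50.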

The next test concerns MV-4-11 cell. The test can be described thus: Cell proliferation assay (Cell Titer-Glo). It is filed as cell-based. The following applies: Homo sapiens, MV4-11, 96 h, inhibition of MV-4-11 cell proliferation; Cell Titer-Glo on day 4. Put shortly: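 MV-4-11 cells were seeded in IMDM with 10% FBS, cultured 24 h, then given the compounds at a range of concentrations (0.1% DMSO final). On day 4, viability was read by Cell Titer-Glo luminescence after 15 min mixing at 25 °C.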

In the next test the target is T2, hERG potassium channel (Homo sapiens, UniProt Q12809).
T2 construct: expressed in transfected cells; host or cells: CHO (Chinese hamster ovary) cells stably expressing hERG
The test can be described thus: Inhibition of hERG potassium channel current, manual patch clamp in CHO cells stably expressing hERG. It is filed as cell-based. The following applies: whole-cell patch clamp, room temperature. The protocol: The electrophysiological manual patch clamp method was used to test the effect of the compounds on the current of hERG potassium channel (human Ether-a-go-go Related Gene potassium channel).
CHO cells stably expressing hERG were cultured in a cell Petri dish having a diameter of 35 mm, placed in an incubator at 37° C. and with 5% CO2, and passaged every 48 hours at a ratio of 1:5. The culture medium formula was: 90% F12 (Invitrogen), 10% fetal bovine serum (Gibco), 100 μg/mL G418 (Invitrogen), and 100 μg/mL Hygromycin B (Invitrogen). On the day of the test, the cell culture medium was sucked away, and the cells were washed with extracellular fluid once. Then 0.25% Trypsin-EDTA (Invitrogen) solution was added, and the cells was digested at room temperature for 3-5 min. The digestive fluid was sucked away, and the cells were resuspended with extracellular fluid, and transferred to the experimental dish for electrophysiological recording.
On the day of test, the compounds were prepared using DMSO into mother solution with concentration of 20 mM, and then serial dilution with DMSO was performed three times, i.e., 10 μL of the solution was added to 20 μL of DMSO, then 10 μL of the serial diluted solution of the compounds in DMSO was added to 4990 μL of extracellular fluid, and 500 times of dilution was performed to obtain the final concentration to be tested.
The hERG potassium channel currents of CHO (Chinese hamster ovary) cells stably expressing hERG potassium channels were recorded using whole-cell patch clamp technique at room temperature. The glass microelectrodes were made from glass electrode blanks (BF150-86-10, Sutter) by pulling through a puller, and the tip resistance was about 2-5 MΩ after filling the electrode with the inner liquid. The glass microelectrodes could be connected to a patch clamp amplifier by inserting them into the amplifier probe. Clamp voltage and data recording were controlled and recorded by a computer using software pClamp 10 with a sampling frequency of 10 kHz and a filtering frequency of 2 kHz. After obtaining a whole-cell recording, the cell was clamped at −80 mV, and the step voltage inducing hERG potassium current (IhERG) was given a depolarizing voltage from −80 mV to +20 mV for 2 s, and repolarized to −50 mV for 1 s, then returning to −80 mV. This voltage stimulus was given every 10 s. After it is determined that the potassium hERG current was stable (for 1 min), the dosing process was initiated. The compounds were administered for at least 1 min at each tested concentration, and at least 2 cells (n≥2) were tested at each concentration.
Data analysis and processing were conducted using softwares pClamp 10, GraphPad Prism 5, and Excel. The degree of inhibitory activity of different compound concentrations on hERG potassium current (peak value of hERG tail current induced at −50 mV) was calculated using the following formula: Inhibition %=[1−(I/Io)]×100%. Among them, Inhibition % represents the percentage inhibition of the compound on hERG potassium current, and I and Io represent the amplitude of hERG potassium current after and before dosing, respectively.
IC50 of the compounds was calculated using software GraphPad Prism 5 by fitting the following equation: Y=Bottom+(Top−Bottom)/(1+10^(Log IC50−X)*HillSlope). Among them, X is the Log value of the detection concentration of test material, Y is the inhibition percentage at the corresponding concentration, and Bottom and Top are the minimum and maximum inhibition percentages, respectively.

Test [1] relates to human esophageal squamous carcinoma cell line KYSE-520. Briefly: KYSE-520 subcutaneous transplantation tumor model. It is filed as in vivo. The following applies: KYSE-520 subcutaneous tumor, female Balb/C nude mice, 10 mg/kg, PO, QD. How it is done: The human esophageal squamous carcinoma cell line KYSE-520 was cultured in RPMI 1640 containing 10% fetal bovine serum placed in a 37° C., 5% CO2 sterile incubator. The cells were passaged 2-3 times per week, digested with 0.25% trypsin-EDTA. After terminating the digestion with the above complete medium, the system was centrifugated at 1000 rpm for 5 min. The supernatant was discarded, and the cells were resuspended and passaged at a ratio of 1:3-1:5. Cells in logarithmic phase were collected, resuspended in serum-free RPMI 1640, counted and adjusted to the appropriate density.
KYSE-520 cells (3×10^6 cells/mouse) were inoculated into the right ventral dorsum of approximately 6- to 8-week-old female Balb/C nude mice. Then the tumors grew to an average volume of about 200 mm^3, the tumors were randomly grouped according to the tumor volume and body weight (n=8-10). Administration was started on the day of grouping and was performed once daily, defining the day of grouping as day 0. Tumor diameters were measured twice a week with vernier calipers, and tumor volume was calculated by the formula TV (mm^3)=0.5×a×b^2, with a and b representing the long and short diameters (in mm) of the tumors, respectively. When the average tumor volume of the control group was about 800 mm^3, the experiment was terminated. The tumor tissues were isolated and weighed to calculate the tumor weight proliferation rate with T/Cweight %=TWT/TWC %, and TWT and TWC represent the tumor weight of the administered group and the vehicle control group, respectively.

Consider one compound from US20240025924A1, “HETEROCYCLE SUBSTITUTED KETONE DERIVATIVE, AND COMPOSITION AND MEDICINAL USE THEREOF” (SHANGHAI HAIYAN PHARMACEUTICAL TECHNOLOGY CO., LTD., priority 2021, published 2024).

A value given as a limit tells only on which side of the number the result lay.

T2 sequence (Q12809 whole entry): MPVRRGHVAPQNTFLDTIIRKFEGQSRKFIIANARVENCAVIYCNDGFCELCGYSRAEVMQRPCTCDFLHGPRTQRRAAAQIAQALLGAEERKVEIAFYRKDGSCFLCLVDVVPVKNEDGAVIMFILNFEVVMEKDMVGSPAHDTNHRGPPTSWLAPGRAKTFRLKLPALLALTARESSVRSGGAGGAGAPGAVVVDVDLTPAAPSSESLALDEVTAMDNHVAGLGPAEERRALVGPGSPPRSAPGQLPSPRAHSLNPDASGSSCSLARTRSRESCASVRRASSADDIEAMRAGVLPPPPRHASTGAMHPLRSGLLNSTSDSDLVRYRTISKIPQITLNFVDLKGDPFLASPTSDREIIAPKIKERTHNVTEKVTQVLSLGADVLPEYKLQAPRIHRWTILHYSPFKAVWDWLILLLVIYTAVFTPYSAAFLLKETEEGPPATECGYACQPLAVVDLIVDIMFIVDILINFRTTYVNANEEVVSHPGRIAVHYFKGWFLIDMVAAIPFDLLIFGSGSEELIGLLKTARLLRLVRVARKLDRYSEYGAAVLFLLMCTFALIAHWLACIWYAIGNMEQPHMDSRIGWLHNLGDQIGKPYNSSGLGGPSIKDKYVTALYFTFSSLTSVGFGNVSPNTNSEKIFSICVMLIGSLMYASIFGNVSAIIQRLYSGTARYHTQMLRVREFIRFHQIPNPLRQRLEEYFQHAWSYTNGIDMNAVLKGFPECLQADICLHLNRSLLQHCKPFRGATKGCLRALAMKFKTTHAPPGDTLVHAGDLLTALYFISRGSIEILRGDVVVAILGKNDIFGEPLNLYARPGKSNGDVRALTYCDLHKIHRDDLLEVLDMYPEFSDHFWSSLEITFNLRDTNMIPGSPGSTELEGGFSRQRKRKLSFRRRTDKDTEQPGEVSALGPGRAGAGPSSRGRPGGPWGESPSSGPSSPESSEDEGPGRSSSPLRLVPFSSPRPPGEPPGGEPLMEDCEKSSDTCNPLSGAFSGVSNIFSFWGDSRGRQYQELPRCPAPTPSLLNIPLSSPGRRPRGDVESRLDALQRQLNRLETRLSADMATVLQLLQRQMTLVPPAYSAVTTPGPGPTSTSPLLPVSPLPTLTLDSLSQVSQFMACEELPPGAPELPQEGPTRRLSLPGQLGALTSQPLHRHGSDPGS

Turning to `Nc1nc2c(s1)CN(C(=O)c1ncc(N3CCC4(CC3)Cc3cc(F)ccc3C4N)nc1N)CC2(F)F` (stereo not shown) [Compound 114], the IC50 on SHP-2 enzyme is 7 nM; in the test with MV-4-11 cell, 7 nM; against hERG potassium channel, more than 30000 nM. In addition, the “T/Cweight (tumor weight proliferation rate)” value in test [1] was determined as 39.69%.
